This passage reports dTm results from publication PMC12136037, “Type II kinase inhibitors that target Parkinson’s disease–associated LRRK2” (Science Advances, 2025).

What all share (assay): DSF 100 kinase selectivity screen;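 note: compound tested at 20 µM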
Common to all, as to type: binding

Assay [1] addresses T1, ~100 representative kinases (Homo sapiens, UniProt P54762).
T1 construct: Recombinant protein kinase domains with a concentration of 2 μM
T1 sequence (P54762 18-984): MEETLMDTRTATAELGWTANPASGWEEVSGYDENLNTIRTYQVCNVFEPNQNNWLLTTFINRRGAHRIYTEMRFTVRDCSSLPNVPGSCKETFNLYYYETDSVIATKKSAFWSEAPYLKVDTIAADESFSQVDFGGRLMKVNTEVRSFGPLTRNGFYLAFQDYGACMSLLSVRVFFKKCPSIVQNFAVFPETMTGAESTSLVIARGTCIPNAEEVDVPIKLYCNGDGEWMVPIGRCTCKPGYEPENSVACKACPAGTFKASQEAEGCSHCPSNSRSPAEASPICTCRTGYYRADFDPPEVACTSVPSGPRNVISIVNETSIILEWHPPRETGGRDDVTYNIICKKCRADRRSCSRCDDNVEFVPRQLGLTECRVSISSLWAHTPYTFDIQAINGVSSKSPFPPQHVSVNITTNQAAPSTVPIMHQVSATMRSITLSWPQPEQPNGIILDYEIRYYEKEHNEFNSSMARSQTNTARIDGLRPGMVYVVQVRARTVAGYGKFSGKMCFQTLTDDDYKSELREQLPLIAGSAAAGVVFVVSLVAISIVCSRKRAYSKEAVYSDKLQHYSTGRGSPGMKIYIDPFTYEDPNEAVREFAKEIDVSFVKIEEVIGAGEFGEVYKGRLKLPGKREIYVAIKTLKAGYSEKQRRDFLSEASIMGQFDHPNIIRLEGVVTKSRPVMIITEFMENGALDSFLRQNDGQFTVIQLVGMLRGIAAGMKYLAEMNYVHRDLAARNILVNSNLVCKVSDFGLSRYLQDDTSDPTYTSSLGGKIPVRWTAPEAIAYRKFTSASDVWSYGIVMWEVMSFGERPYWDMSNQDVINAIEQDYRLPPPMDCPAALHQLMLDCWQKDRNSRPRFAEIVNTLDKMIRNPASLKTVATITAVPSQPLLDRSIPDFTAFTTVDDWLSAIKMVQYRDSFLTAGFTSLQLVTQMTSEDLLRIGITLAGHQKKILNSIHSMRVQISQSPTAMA
The conditions noted are these: Protein EPHB1; average of three replicates. The gist of the method:
(§1)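 Each kinase domain, at 2 μM, is mixed with 20 μM test compound and SYPRO Orange in Hepes (20 mM, pH 7.5) with 500 mM NaCl. Temperature is then raised at 3°C/min and fluorescence-monitored unfolding yields the melting temperature change, ΔTm in degrees Celsius.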

The target of assay [2] is T2, ~100 representative kinases (Homo sapiens, UniProt P49137).
T2 construct: Recombinant protein kinase domains with a concentration of 2 μM
T2 sequence (P49137 whole entry, the tested form may be a part): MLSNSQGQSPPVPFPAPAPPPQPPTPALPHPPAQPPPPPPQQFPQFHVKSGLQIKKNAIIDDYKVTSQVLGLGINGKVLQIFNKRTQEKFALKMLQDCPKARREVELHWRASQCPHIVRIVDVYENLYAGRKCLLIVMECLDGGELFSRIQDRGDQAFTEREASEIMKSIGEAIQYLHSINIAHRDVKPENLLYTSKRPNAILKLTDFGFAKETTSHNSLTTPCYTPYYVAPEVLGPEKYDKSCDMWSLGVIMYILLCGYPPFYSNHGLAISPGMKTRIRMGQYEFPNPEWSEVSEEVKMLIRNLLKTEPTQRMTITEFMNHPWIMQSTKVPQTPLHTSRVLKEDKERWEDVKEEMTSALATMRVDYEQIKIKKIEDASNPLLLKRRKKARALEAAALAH
The conditions noted are these: protein MAPKAPK2; average of three replicates. In short, it runs like this: as §1

Assay [3] addresses T3, ~100 representative kinases (Homo sapiens, UniProt Q9Y243).
T3 construct: Recombinant protein kinase domains with a concentration of 2 μM
The conditions noted are these: Protein AKT3; average of three replicates. In short, it runs like this:
as §1

The target in assay [4] is T4, ~100 representative kinases (Homo sapiens, UniProt Q9Y2H1).
T4 construct: Recombinant protein kinase domains with a concentration of 2 μM
T4 sequence (Q9Y2H1 whole entry, the tested form may be a part): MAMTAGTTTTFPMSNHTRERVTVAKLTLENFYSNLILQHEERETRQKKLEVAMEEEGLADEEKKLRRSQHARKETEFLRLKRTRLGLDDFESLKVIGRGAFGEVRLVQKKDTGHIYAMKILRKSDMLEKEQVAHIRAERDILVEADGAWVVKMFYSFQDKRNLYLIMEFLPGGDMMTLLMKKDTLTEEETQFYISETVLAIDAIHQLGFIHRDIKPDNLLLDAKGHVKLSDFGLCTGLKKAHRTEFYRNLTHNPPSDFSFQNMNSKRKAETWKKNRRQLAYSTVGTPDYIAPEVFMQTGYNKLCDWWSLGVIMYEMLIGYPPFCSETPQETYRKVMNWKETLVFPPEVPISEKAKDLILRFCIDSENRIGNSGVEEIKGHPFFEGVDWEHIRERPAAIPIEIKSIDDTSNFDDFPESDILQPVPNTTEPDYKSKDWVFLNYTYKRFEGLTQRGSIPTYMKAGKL
The conditions noted are these: Protein STK38L; DSF; average of three replicates. In short, it runs like this:
as §1

The target in assay [5] is T5, ~100 representative kinases (Homo sapiens, UniProt P51813).
T5 construct: Recombinant protein kinase domains with a concentration of 2 μM
T5 sequence (P51813 1-675): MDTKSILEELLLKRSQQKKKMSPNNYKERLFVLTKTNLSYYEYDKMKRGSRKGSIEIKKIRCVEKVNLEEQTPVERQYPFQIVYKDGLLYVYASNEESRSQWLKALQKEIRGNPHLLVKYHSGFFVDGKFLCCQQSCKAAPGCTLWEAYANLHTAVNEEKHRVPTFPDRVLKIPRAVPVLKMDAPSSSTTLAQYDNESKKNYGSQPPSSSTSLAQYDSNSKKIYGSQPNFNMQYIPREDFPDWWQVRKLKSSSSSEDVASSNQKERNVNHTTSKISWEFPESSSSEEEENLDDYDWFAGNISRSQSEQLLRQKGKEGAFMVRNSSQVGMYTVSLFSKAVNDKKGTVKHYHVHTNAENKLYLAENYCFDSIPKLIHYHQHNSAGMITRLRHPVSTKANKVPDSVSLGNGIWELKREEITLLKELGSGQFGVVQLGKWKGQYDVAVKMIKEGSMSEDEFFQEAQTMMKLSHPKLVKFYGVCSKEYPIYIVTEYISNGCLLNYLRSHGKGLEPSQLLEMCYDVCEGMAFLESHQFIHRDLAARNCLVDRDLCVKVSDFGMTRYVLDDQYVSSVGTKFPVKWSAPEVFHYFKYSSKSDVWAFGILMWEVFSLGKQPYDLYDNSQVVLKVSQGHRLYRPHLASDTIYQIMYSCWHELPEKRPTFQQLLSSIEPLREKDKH
The note with it: Protein BMX; average of three replicates. In short, it runs like this:
as §1

In assay [6] the target is T6, ~100 representative kinases (Homo sapiens, UniProt P34947).
T6 construct: Recombinant protein kinase domains with a concentration of 2 μM
T6 sequence (P34947 whole entry, the tested form may be a part): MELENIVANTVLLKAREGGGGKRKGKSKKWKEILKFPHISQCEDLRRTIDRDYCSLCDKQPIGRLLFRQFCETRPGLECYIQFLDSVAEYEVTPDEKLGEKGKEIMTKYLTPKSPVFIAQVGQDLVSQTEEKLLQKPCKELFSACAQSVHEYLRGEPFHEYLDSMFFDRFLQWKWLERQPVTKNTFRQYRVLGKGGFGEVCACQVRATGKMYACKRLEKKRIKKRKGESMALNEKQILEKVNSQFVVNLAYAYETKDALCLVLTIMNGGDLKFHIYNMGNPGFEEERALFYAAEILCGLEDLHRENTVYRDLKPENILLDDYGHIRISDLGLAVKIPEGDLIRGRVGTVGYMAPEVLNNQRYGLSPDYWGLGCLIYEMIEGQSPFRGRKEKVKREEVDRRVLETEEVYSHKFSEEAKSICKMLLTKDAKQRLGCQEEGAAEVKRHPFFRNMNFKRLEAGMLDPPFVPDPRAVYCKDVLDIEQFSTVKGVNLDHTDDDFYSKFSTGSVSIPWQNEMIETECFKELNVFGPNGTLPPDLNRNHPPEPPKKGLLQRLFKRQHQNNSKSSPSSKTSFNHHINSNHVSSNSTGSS
The note with it: protein GPRK5; average of three replicates. In short, it runs like this:
as §1

Assay [7] concerns the target T7, ~100 representative kinases (Homo sapiens, UniProt P49674).
T7 construct: Recombinant protein kinase domains with a concentration of 2 μM
The note with it: Protein CSNK1E; average of three replicates. The gist of the method: as §1

T3 sequence (Q9Y243 whole entry, the tested form may be a part): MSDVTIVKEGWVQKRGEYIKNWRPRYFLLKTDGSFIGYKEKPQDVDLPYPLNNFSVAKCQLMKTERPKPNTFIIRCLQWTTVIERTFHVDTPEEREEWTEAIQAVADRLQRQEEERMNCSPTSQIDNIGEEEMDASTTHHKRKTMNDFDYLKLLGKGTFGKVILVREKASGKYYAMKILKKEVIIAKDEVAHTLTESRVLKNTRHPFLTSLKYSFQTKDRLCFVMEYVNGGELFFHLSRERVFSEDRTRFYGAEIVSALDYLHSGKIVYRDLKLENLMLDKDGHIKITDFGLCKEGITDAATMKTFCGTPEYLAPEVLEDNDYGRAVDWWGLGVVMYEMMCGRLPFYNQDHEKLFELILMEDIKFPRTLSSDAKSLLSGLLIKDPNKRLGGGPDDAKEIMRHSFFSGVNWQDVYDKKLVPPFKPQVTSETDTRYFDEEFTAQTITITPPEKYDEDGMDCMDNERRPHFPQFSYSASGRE
T7 sequence (P49674 whole entry, the tested form may be a part): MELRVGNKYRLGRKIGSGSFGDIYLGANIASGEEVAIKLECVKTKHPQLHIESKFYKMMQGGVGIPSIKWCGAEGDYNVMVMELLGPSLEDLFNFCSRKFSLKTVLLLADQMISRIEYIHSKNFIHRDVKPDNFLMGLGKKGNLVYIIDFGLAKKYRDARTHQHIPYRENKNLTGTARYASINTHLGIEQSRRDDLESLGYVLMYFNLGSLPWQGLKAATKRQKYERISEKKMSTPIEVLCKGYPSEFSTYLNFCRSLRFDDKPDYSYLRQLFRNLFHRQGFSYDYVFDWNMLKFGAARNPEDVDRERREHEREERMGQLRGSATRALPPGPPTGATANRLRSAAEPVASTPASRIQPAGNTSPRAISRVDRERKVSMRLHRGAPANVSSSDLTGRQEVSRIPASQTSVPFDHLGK

For the molecule `Cc1ccc(C(=O)Nc2ccc(CN3CCN(C)CC3)c(C(F)(F)F)c2)cc1C#Cc1c[nH]c2ncnc(N3CCOCC3)c12` [Compound 1], the dTm is 4.85 K in assay [1]; -0.41 K in assay [2]; -0.0373 K in assay [3]; 2.95 K in assay [4]; 1.60 K in assay [5]; 0.19 K in assay [6].
In the case of `O=C(Nc1ccc(F)cc1)C1(C(=O)Nc2cccc(-c3c[nH]c4ncnc(N5CCOCC5)c34)c2)CC1` [Compound 2], the dTm in assay [1] is recorded as 3.27 K; in assay [2] it was -0.40 K; in assay [3] it was 0.65 K; in assay [4], -0.20 K; in assay [7] it was 4.37 K; in assay [5], 0.39 K. The dTm in assay [6] is listed as -0.82 K.
For `O=C(Nc1cccc(-c2c[nH]c3ncnc(N4CCOCC4)c23)c1)c1cccn(-c2ccc(F)cc2)c1=O` [Compound 4], the dTm is on record as 2.81 K in assay [1]; -0.41 K in assay [2]; -0.17 K in assay [3]; -0.37 K in assay [4]; 7.33 K in assay [7]; 1.71 K in assay [5]. Besides, in assay [6], the dTm was found to be 0.55 K.
Consider `Cc1cc(NC(=O)C2(C(=O)Nc3ccc(F)cc3)CC2)cc(-c2c[nH]c3ncnc(N4CCOCC4)c23)c1` [Compound 6], for which the dTm in assay [1] is reported as 1.49 K; in assay [2], 0.62 K; in assay [3], -0.13 K; in assay [4], 0.00 K; in assay [7], 4.54 K; in assay [5], 0.51 K. The molecule also registered a dTm in assay [6] of 0.0071 K.
On to `O=C(Nc1cccc(-c2c[nH]c3ncnc(N4CCOCC4)c23)c1)C1(C(=O)Nc2cccc3c2CCC3)CC1` [Compound 11], for which the dTm in assay [1] is on record as -11.24 K; in assay [2], -0.26 K; in assay [3], -0.39 K; in assay [4], 0.00 K; in assay [7], 4.91 K; in assay [5], 1.17 K. Further, the dTm in assay [6] is recorded as -0.20 K.
Regarding `O=C(Nc1ccccc1)C1(C(=O)Nc2cccc(-c3c[nH]c4ncnc(N5CCOCC5)c34)c2)CC1` [Compound 12], the dTm in assay [1] is recorded as 2.37 K; in assay [2] it was -0.15 K; in assay [3] it was 0.16 K; in assay [4], 0.29 K; in assay [7], 3.99 K; in assay [5], 0.86 K. In addition, the dTm in assay [6] amounted to 0.86 K.
Turning to `O=C(Nc1ccc(Cl)cc1)C1(C(=O)Nc2cccc(-c3c[nH]c4ncnc(N5CCOCC5)c34)c2)CC1` [Compound 13], the dTm in assay [1] was found to be 5.42 K; in assay [2] it was 0.68 K; in assay [3], 0.45 K; in assay [4], 0.49 K; in assay [7], 5.46 K; in assay [5], 0.67 K. This molecule also returned a dTm in assay [6] of 1.38 K.
`Cc1ccc(NC(=O)C2(C(=O)Nc3cccc(-c4c[nH]c5ncnc(N6CCOCC6)c45)c3)CC2)cc1` [Compound 14]: the dTm in assay [1] is 3.63 K; in assay [2], -0.14 K; in assay [3], 0.32 K; in assay [4] it was 0.07 K; in assay [7], 3.41 K; in assay [5], 0.15 K. This molecule also returned a dTm in assay [6] of 0.90 K.
`CCc1ccc(NC(=O)C2(C(=O)Nc3cccc(-c4c[nH]c5ncnc(N6CCOCC6)c45)c3)CC2)cc1` [Compound 15]: the dTm in assay [1] is on record as 3.72 K; in assay [2] it was 0.05 K; in assay [3], -0.80 K; in assay [4], 0.73 K; in assay [7] it was 2.91 K; in assay [5] it was 0.11 K. This molecule also yielded a dTm in assay [6] of 1.27 K.
With `COc1ccc(NC(=O)C2(C(=O)Nc3cccc(-c4c[nH]c5ncnc(N6CCOCC6)c45)c3)CC2)cc1` [Compound 16], the dTm is on record as 0.79 K in assay [1]; -0.05 K in assay [2]; 0.25 K in assay [3]; -0.19 K in assay [4]; 2.19 K in assay [7]; -0.18 K in assay [5]. The same molecule displayed a dTm in assay [6] of 0.44 K.
Regarding `O=C(Nc1cccc(-c2c[nH]c3ncnc(N4CCOCC4)c23)c1)C1(C(=O)Nc2ccc(F)c(F)c2)CC1` [Compound 17], the dTm in assay [1] is listed as 2.50 K; in assay [2] it was -0.12 K; in assay [3], 0.71 K; in assay [4], 0.13 K; in assay [7], 5.09 K; in assay [5] it was 0.61 K. In addition, the dTm in assay [6] was 0.75 K.
With `CCNc1nc(Nc2cc(F)c(C(=O)N3CCOCC3)cc2OC)ncc1C(F)(F)F` [GNE-7915], the dTm in assay [1] is 0.07 K; in assay [2], -0.23 K; in assay [3], -0.31 K; in assay [4], 0.75 K; in assay [5], -0.0422 K; in assay [6], 0.32 K.
With `Cc1ccc(C(=O)Nc2ccc(CN3CCN(C)CC3)c(C(F)(F)F)c2)cc1C#Cc1cnc2[nH]ncc2c1` [GZD-824, reference compound], the dTm in assay [1] is recorded as 14.98 K; in assay [2] it was -0.24 K; in assay [3], -0.88 K; in assay [4] it was 2.07 K; in assay [6], 0.29 K.
For `C[C@@H]1CN(c2cc(-c3n[nH]c4ccc(OC5(C)CC5)cc34)ncn2)C[C@H](C)O1` [MLi2], the dTm in assay [1] was -0.37 K; in assay [2], -0.23 K; in assay [3], -0.44 K; in assay [4] it was -0.08 K; in assay [5], -2.53 K; in assay [6], 0.07 K.
With `Cn1cc(-c2c[nH]c3ncnc(N4CCOCC4)c23)cc1C#N` [PFE-360], the dTm is given as -0.08 K in assay [1]; 0.0427 K in assay [2]; -0.26 K in assay [3]; 0.0435 K in assay [4]; 0.47 K in assay [5]; 0.56 K in assay [6].
`CNC(=O)c1cc(Oc2ccc(NC(=O)Nc3cc(C(C)(C)C)nn3-c3ccc4ncccc4c3)c(F)c2)ccn1` [Rebastinib, reference compound]: the dTm in assay [1] is reported as 4.28 K; in assay [2], 0.44 K; in assay [3] it was -0.41 K; in assay [7], 0.33 K; in assay [5], 7.16 K; in assay [6] it was 0.59 K.
With `CN[C@@H]1C[C@H]2O[C@@](C)([C@@H]1OC)n1c3ccccc3c3c4c(c5c6ccccc6n2c5c31)C(=O)NC4` [Staurosporine], the dTm in assay [6] is on record as 7.02 K.
